Measured values from patent US10004701B2, “Methods and compositions for treating infection” (UNIVERSITY OF ROCHESTER, priority 2012, dated 2018).
Where a name gives a salt, the structure may show the parent alone. Read-outs that look alike come from different tables or passages of the source.

Legend:
Assay in all cases: AK assay 384-well format, Prestwick library screening
E. faecium = format: cell-based, Enterococcus faecium; conditions: Enterococcus faecium, 3 h, 50 μM final drug concentration
[1] = tested on: S. aureus strain USA300-0114; format: cell-based, Staphylococcus aureus; conditions: Staphylococcus aureus, USA300, 3 h, 50 μM final drug concentration
K. pneumoniae = format: cell-based, Klebsiella pneumoniae; conditions: Klebsiella pneumoniae, 3 h, 50 μM final drug concentration
[2] = tested on: A. baumannii strain 98-37-09; format: cell-based, Acinetobacter baumannii; conditions: Acinetobacter baumannii, 983709, 3 h, 50 μM final drug concentration
P. aeruginosa = format: cell-based, Pseudomonas aeruginosa; conditions: Pseudomonas aeruginosa, 3 h, 50 μM final drug concentration
E. cloacae = format: cell-based, Enterobacter cloacae; conditions: Enterobacter cloacae, 3 h, 50 μM final drug concentration
E. coli = format: cell-based, Escherichia coli; conditions: Escherichia coli, 3 h, 50 μM final drug concentration
[3] = 384-well format, cutoff for positive-scoring molecules 3-fold increase, read-out: AK-based Prestwick Library Screening Results, E. faecium (increase in extracellular AK activity)
[4] = 384-well format, cutoff for positive-scoring molecules 3-fold increase, read-out: AK-based Prestwick Library Screening Results, S. aureus (increase in extracellular AK activity)
[5] = 384-well format, cutoff for positive-scoring molecules 3-fold increase, read-out: AK-based Prestwick Library Screening Results, K. pneumoniae (increase in extracellular AK activity)
[6] = 384-well format, cutoff for positive-scoring molecules 3-fold increase, read-out: AK-based Prestwick Library Screening Results, A. baumannii (increase in extracellular AK activity)
[7] = 384-well format, cutoff for positive-scoring molecules 3-fold increase, read-out: AK-based Prestwick Library Screening Results, P. aeruginosa (increase in extracellular AK activity)
[8] = 384-well format, cutoff for positive-scoring molecules 3-fold increase, read-out: AK-based Prestwick Library Screening Results, E. cloacae (increase in extracellular AK activity)
[9] = 384-well format, cutoff for positive-scoring molecules 3-fold increase, read-out: AK-based Prestwick Library Screening Results, E. coli (increase in extracellular AK activity)
[10] = cutoff for positive-scoring molecules 3-fold increase, read-out: AK-based Prestwick Library Screening Results, E. faecium (fold increase in extracellular AK activity)
[11] = cutoff for positive-scoring molecules 3-fold increase, read-out: AK-based Prestwick Library Screening Results, S. aureus (fold increase in extracellular AK activity)
[12] = cutoff for positive-scoring molecules 3-fold increase, read-out: AK-based Prestwick Library Screening Results, K. pneumoniae (fold increase in extracellular AK activity)
[13] = cutoff for positive-scoring molecules 3-fold increase, read-out: AK-based Prestwick Library Screening Results, A. baumannii (fold increase in extracellular AK activity)
[14] = cutoff for positive-scoring molecules 3-fold increase, read-out: AK-based Prestwick Library Screening Results, P. aeruginosa (fold increase in extracellular AK activity)
[15] = cutoff for positive-scoring molecules 3-fold increase, read-out: AK-based Prestwick Library Screening Results, E. cloacae (fold increase in extracellular AK activity)
[16] = cutoff for positive-scoring molecules 3-fold increase, read-out: AK-based Prestwick Library Screening Results, E. coli (fold increase in extracellular AK activity)
[17] = planktonic, […], read-out: AK-based Prestwick Library Screening Results, E. faecium (fold increase in extracellular AK activity)
[18] = planktonic, […], read-out: AK-based Prestwick Library Screening Results, S. aureus (fold increase in extracellular AK activity)
[19] = planktonic, […], read-out: AK-based Prestwick Library Screening Results, K. pneumoniae (fold increase in extracellular AK activity)
[20] = planktonic, […], read-out: AK-based Prestwick Library Screening Results, A. baumannii (fold increase in extracellular AK activity)
[21] = planktonic, […], read-out: AK-based Prestwick Library Screening Results, P. aeruginosa (fold increase in extracellular AK activity)
[22] = planktonic, […], read-out: AK-based Prestwick Library Screening Results, E. cloacae (fold increase in extracellular AK activity)
[23] = planktonic, […], read-out: AK-based Prestwick Library Screening Results, E. coli (fold increase in extracellular AK activity)
[24] = planktonic, cutoff for positive-scoring molecules 3-fold increase, read-out: AK-based Prestwick Library Screening Results, E. faecium (fold increase in extracellular AK activity)
[25] = planktonic, cutoff for positive-scoring molecules 3-fold increase, read-out: AK-based Prestwick Library Screening Results, S. aureus (fold increase in extracellular AK activity)
[26] = planktonic, cutoff for positive-scoring molecules 3-fold increase, read-out: AK-based Prestwick Library Screening Results, K. pneumoniae (fold increase in extracellular AK activity)
[27] = planktonic, cutoff for positive-scoring molecules 3-fold increase, read-out: AK-based Prestwick Library Screening Results, A. baumannii (fold increase in extracellular AK activity)
[28] = planktonic, cutoff for positive-scoring molecules 3-fold increase, read-out: AK-based Prestwick Library Screening Results, P. aeruginosa (fold increase in extracellular AK activity)
[29] = planktonic, cutoff for positive-scoring molecules 3-fold increase, read-out: AK-based Prestwick Library Screening Results, E. cloacae (fold increase in extracellular AK activity)
[30] = planktonic, cutoff for positive-scoring molecules 3-fold increase, read-out: AK-based Prestwick Library Screening Results, E. coli (fold increase in extracellular AK activity)

COc1ncnc(NS(=O)(=O)c2ccc(N)cc2)c1OC [Sulfadoxine]
fold induction at 50 µM (E. faecium; planktonic E. faecium, positive cutoff 3-fold increase, read-out: AK-based Prestwick library screening result, E. faecium (fold increase in extracellular AK activity)): 1
fold induction at 50 µM ([1]; planktonic S. aureus, positive cutoff 3-fold increase, read-out: AK-based Prestwick library screening result, S. aureus (fold increase in extracellular AK activity)): 0.9
fold induction at 50 µM (K. pneumoniae; planktonic K. pneumoniae, positive cutoff 3-fold increase, read-out: AK-based Prestwick library screening result, K. pneumoniae (fold increase in extracellular AK activity)): 1
fold induction at 50 µM ([2]; planktonic A. baumannii, positive cutoff 3-fold increase, read-out: AK-based Prestwick library screening result, A. baumannii (fold increase in extracellular AK activity)): 2.9
fold induction at 50 µM (P. aeruginosa; planktonic P. aeruginosa, positive cutoff 3-fold increase, read-out: AK-based Prestwick library screening result, P. aeruginosa (fold increase in extracellular AK activity)): 1
fold induction at 50 µM (E. cloacae; planktonic E. cloacae, positive cutoff 3-fold increase, read-out: AK-based Prestwick library screening result, E. cloacae (fold increase in extracellular AK activity)): 1.3
fold induction at 50 µM (E. coli; planktonic E. coli, positive cutoff 3-fold increase, read-out: AK-based Prestwick library screening result, E. coli (fold increase in extracellular AK activity)): 1

[H]/N=C(/N)NS(=O)(=O)c1ccc(N)cc1 [Sulfaguanidine]
fold induction at 50 µM (E. faecium; [3]): 1
fold induction at 50 µM [1, 4]: 0.5
fold induction at 50 µM (K. pneumoniae; [5]): 0.6
fold induction at 50 µM [2, 6]: 0.5
fold induction at 50 µM (P. aeruginosa; [7]): 0.5
fold induction at 50 µM (E. cloacae; [8]): 0.4
fold induction at 50 µM (E. coli; [9]): 0.5

Cc1ccnc(NS(=O)(=O)c2ccc(N)cc2)n1 [Sulfamerazine]
fold induction at 50 µM (E. faecium; [10]): 1
fold induction at 50 µM [1, 11]: 0.9
fold induction at 50 µM (K. pneumoniae; [12]): 1
fold induction at 50 µM [2, 13]: 2.1
fold induction at 50 µM (P. aeruginosa; [14]): 1
fold induction at 50 µM (E. cloacae; [15]): 1.9
fold induction at 50 µM (E. coli; [16]): 1.1

COc1cnc(NS(=O)(=O)c2ccc(N)cc2)nc1 [Sulfameter]
fold induction at 50 µM (E. faecium; [17]): 1
fold induction at 50 µM [1, 18]: 1.2
fold induction at 50 µM (K. pneumoniae; [19]): 1
fold induction at 50 µM [2, 20]: 2.3
fold induction at 50 µM (P. aeruginosa; [21]): 1.1
fold induction at 50 µM (E. cloacae; [22]): 1.2
fold induction at 50 µM (E. coli; [23]): 1.3

Cc1cc(C)nc(NS(=O)(=O)c2ccc(N)cc2)n1 [Sulfamethazine sodium salt]
fold induction at 50 µM (E. faecium; [10]): 1
fold induction at 50 µM [1, 11]: 1.4
fold induction at 50 µM (K. pneumoniae; [12]): 1
fold induction at 50 µM [2, 13]: 1.6
fold induction at 50 µM (P. aeruginosa; [14]): 1.1
fold induction at 50 µM (E. cloacae; [15]): 1.4
fold induction at 50 µM (E. coli; [16]): 1

Cc1nnc(NS(=O)(=O)c2ccc(N)cc2)s1 [Sulfamethizole]
fold induction at 50 µM (E. faecium; [24]): 0.9
fold induction at 50 µM [1, 25]: 0.7
fold induction at 50 µM (K. pneumoniae; [26]): 0.7
fold induction at 50 µM [2, 27]: 1.4
fold induction at 50 µM (P. aeruginosa; [28]): 0.8
fold induction at 50 µM (E. cloacae; [29]): 0.9
fold induction at 50 µM (E. coli; [30]): 1

COc1ccc(NS(=O)(=O)c2ccc(N)cc2)nn1 [Sulfamethoxypyridazine]
fold induction at 50 µM (E. faecium; planktonic, cutoff for positive 3-fold increase, read-out: AK-based Prestwick Library Screening Results, E. faecium (fold increase in extracellular AK activity)): 0.9
fold induction at 50 µM ([1]; planktonic, cutoff for positive 3-fold increase, read-out: AK-based Prestwick Library Screening Results, S. aureus (fold increase in extracellular AK activity)): 0.4
fold induction at 50 µM (K. pneumoniae; planktonic, cutoff for positive 3-fold increase, read-out: AK-based Prestwick Library Screening Results, K. pneumoniae (fold increase in extracellular AK activity)): 0.5
fold induction at 50 µM ([2]; planktonic, cutoff for positive 3-fold increase, read-out: AK-based Prestwick Library Screening Results, A. baumannii (fold increase in extracellular AK activity)): 0.7
fold induction at 50 µM (P. aeruginosa; planktonic, cutoff for positive 3-fold increase, read-out: AK-based Prestwick Library Screening Results, P. aeruginosa (fold increase in extracellular AK activity)): 0.3
fold induction at 50 µM (E. cloacae; planktonic, cutoff for positive 3-fold increase, read-out: AK-based Prestwick Library Screening Results, E. cloacae (fold increase in extracellular AK activity)): 0.3
fold induction at 50 µM (E. coli; planktonic, cutoff for positive 3-fold increase, read-out: AK-based Prestwick Library Screening Results, E. coli (fold increase in extracellular AK activity)): 0.5

COc1cc(NS(=O)(=O)c2ccc(N)cc2)ncn1 [Sulfamonomethoxine]
fold induction at 50 µM (E. faecium; [24]): 0.9
fold induction at 50 µM [1, 25]: 0.7
fold induction at 50 µM (K. pneumoniae; [26]): 0.8
fold induction at 50 µM [2, 27]: 1.6
fold induction at 50 µM (P. aeruginosa; [28]): 1
fold induction at 50 µM (E. cloacae; [29]): 1.1
fold induction at 50 µM (E. coli; [30]): 0.9

Nc1ccc(S(N)(=O)=O)cc1 [Sulfanilamide]
fold induction at 50 µM (E. faecium; [24]): 0.9
fold induction at 50 µM [1, 25]: 0.4
fold induction at 50 µM (K. pneumoniae; [26]): 0.6
fold induction at 50 µM [2, 27]: 1.5
fold induction at 50 µM (P. aeruginosa; [28]): 0.5
fold induction at 50 µM (E. cloacae; [29]): 0.4
fold induction at 50 µM (E. coli; [30]): 0.5

Nc1ccc(S(=O)(=O)Nc2ccnn2-c2ccccc2)cc1 [Sulfaphenazole]
fold induction at 50 µM (E. faecium; [3]): 0.8
fold induction at 50 µM [1, 4]: 0.8
fold induction at 50 µM (K. pneumoniae; [5]): 0.7
fold induction at 50 µM [2, 6]: 1.4
fold induction at 50 µM (P. aeruginosa; [7]): 0.8
fold induction at 50 µM (E. cloacae; [8]): 0.8
fold induction at 50 µM (E. coli; [9]): 0.8

Nc1ccc(S(=O)(=O)Nc2ccccn2)cc1 [Sulfapyridine]
fold induction at 50 µM (E. faecium; [17]): 1
fold induction at 50 µM [1, 18]: 1.4
fold induction at 50 µM (K. pneumoniae; [19]): 0.9
fold induction at 50 µM [2, 20]: 2.2
fold induction at 50 µM (P. aeruginosa; [21]): 1.1
fold induction at 50 µM (E. cloacae; [22]): 1.6
fold induction at 50 µM (E. coli; [23]): 1.2

Nc1ccc(S(=O)(=O)Nc2cnc3ccccc3n2)cc1 [Sulfaquinoxaline sodium salt]
fold induction at 50 µM (E. faecium; [24]): 0.9
fold induction at 50 µM [1, 25]: 0.7
fold induction at 50 µM (K. pneumoniae; [26]): 0.6
fold induction at 50 µM [2, 27]: 1
fold induction at 50 µM (P. aeruginosa; [28]): 0.6
fold induction at 50 µM (E. cloacae; [29]): 0.8
fold induction at 50 µM (E. coli; [30]): 0.6
